We go through 36 compounds from US12606548B2, “Fungicidal oxadiazoles” (FMC CORPORATION, priority 2019, dated 2026).

One assay deals with Phakopsora pachyrhizi. Kind of assay: Test A: test suspension sprayed on soybean seedlings, inoculated next day with Phakopsora pachyrhizi (Asian soybean rust), visual disease rating. It counts as in vivo. The conditions noted are these: for Test A rating (% disease control): relative to the controls. From the text:
General protocol for preparing test suspensions for Tests A-C: the test compounds were first dissolved in acetone in an amount equal to 3% of the final volume and then suspended at the desired concentration (in ppm) in acetone and purified water (50/50 mix by volume) containing 250 ppm of the surfactant PEG400 (polyhydric alcohol esters). The resulting test suspensions were then used in Tests A-C. The test suspension was sprayed to the point of run-off on soybean seedlings. The following day the seedlings were inoculated with a spore suspension of Phakopsora pachyrhizi (the causal agent of Asian soybean rust) and incubated in a saturated atmosphere at 22° C., for 24 h and then moved to a growth chamber at 22° C., for 8 days, after which time visual disease ratings were made. […] A dash (-) indicates the compound was not tested. The test suspensions were sprayed at the concentration listed in the column “Rate in ppm”, unless otherwise indicated.

Assay [1] deals with Puccinia recondita f. sp. tritici. Description: Test C: test suspension sprayed on wheat seedlings, inoculated next day with Puccinia recondita f. sp. tritici (wheat leaf rust), visual disease rating. It counts as in vivo. The following applies: for Test C rating (% disease control): relative to the controls. An excerpt: General protocol for preparing test suspensions for Tests A-C: the test compounds were first dissolved in acetone in an amount equal to 3% of the final volume and then suspended at the desired concentration (in ppm) in acetone and purified water (50/50 mix by volume) containing 250 ppm of the surfactant PEG400 (polyhydric alcohol esters). The resulting test suspensions were then used in Tests A-C. The test suspension was sprayed to the point of run-off on wheat seedlings. The following day the seedlings were inoculated with a spore suspension of Puccinia recondita f. sp. tritici; (the causal agent of wheat leaf rust) and incubated in a saturated atmosphere at 20° C., for 24 h, and then moved to a growth chamber at 20° C., for 6 days, after which time visual disease ratings were made. […] A dash (-) indicates the compound was not tested. The test suspensions were sprayed at the concentration listed in the column “Rate in ppm”, unless otherwise indicated.

Turning to `COCCCOC(=O)c1cnn(Cc2ccc(-c3noc(C(F)(F)F)n3)cc2)c1` [compound 474], the “Test A rating (% disease control)” value with Phakopsora pachyrhizi (Rate 10 ppm test suspension) stood at 100%. Besides, the “Test C rating (% disease control)” value in assay [1] (Rate 10 ppm test suspension) was 100%.

Turning to `CCOC(=O)c1cnn(CCCc2ccc(-c3noc(C(F)(F)F)n3)cc2)c1` [compound 428], in the assay with Phakopsora pachyrhizi (Rate 50 ppm test suspension), the “Test A rating (% disease control)” value amounted to 100%. For the same compound, in assay [1] (Rate 50 ppm test suspension), the “Test C rating (% disease control)” value is listed as 100%.

Consider `C=C(Cl)COC(=O)c1cnn(Cc2ccc(-c3noc(C(F)(F)F)n3)cc2)c1` [compound 482], for which, in the assay on Phakopsora pachyrhizi (Rate 10 ppm test suspension), the “Test A rating (% disease control)” value came out at 100%. Also, the “Test C rating (% disease control)” value in assay [1] (Rate 10 ppm test suspension) stood at 100%.

In the case of `COC(=O)c1ccc(=O)n(Cc2ccc(-c3noc(C(F)(F)F)n3)cc2)c1` [compound 420], the “Test A rating (% disease control)” value in the assay on Phakopsora pachyrhizi (Rate 10 ppm test suspension) stood at 100%. Moreover, the “Test C rating (% disease control)” value in assay [1] (Rate 10 ppm test suspension) came out at 100%.

On to `CSCC(=O)COC(=O)c1cnn(Cc2ccc(-c3noc(C(F)(F)F)n3)cc2)c1` [compound 434], for which, in the assay on Phakopsora pachyrhizi (Rate 10 ppm test suspension), the “Test A rating (% disease control)” value is listed as 100%. The “Test C rating (% disease control)” value in assay [1] (Rate 10 ppm test suspension) was 98%.

For `O=C(NCCCl)c1coc(Cc2ccc(-c3noc(C(F)(F)F)n3)cc2)n1` [compound 204], the “Test A disease control rating” value with Phakopsora pachyrhizi (10 ppm test suspension) is given as 100%. The “Test C disease control rating” value in assay [1] (10 ppm test suspension) is 100%.

As for `CCOC(=O)c1cnn(Cc2ccc(-c3noc(C(F)(F)F)n3)cn2)c1` [compound 424], the “Test A rating (% disease control)” value in the assay on Phakopsora pachyrhizi (Rate 10 ppm test suspension) is 100%. Also, in assay [1] (Rate 10 ppm test suspension), the “Test C rating (% disease control)” value was determined as 96%.

In the case of `CCON=Cc1cnn(Cc2ccc(-c3noc(C(F)(F)F)n3)cc2)c1` [compound 384], the “Test A rating (% disease control)” value in the assay with Phakopsora pachyrhizi (Rate 10 ppm test suspension) worked out at 100%. In addition, in assay [1] (Rate 10 ppm test suspension), the “Test C rating (% disease control)” value is given as 100%.

Turning to `O=C(OCCCl)c1cnn(Cc2ccc(-c3noc(C(F)(F)F)n3)cc2)c1` [compound 477], the “Test A rating (% disease control)” value in the assay with Phakopsora pachyrhizi (Rate 10 ppm test suspension) worked out at 100%. For the same compound, the “Test C rating (% disease control)” value in assay [1] (Rate 10 ppm test suspension) turned out to be 100%.

Consider `N#Cc1cccn(Cc2ccc(-c3noc(C(F)(F)F)n3)cc2)c1=O` [compound 417], for which the “Test A rating (% disease control)” value with Phakopsora pachyrhizi (Rate 10 ppm test suspension) was found to be 100%. In assay [1] (Rate 10 ppm test suspension), the “Test C rating (% disease control)” value was 100%.

Take `CN(C)C(=O)C1=NOC(Cc2ccc(-c3noc(C(F)(F)F)n3)s2)C1` (racemic) [compound 460]: the “Test A rating (% disease control)” value in the assay on Phakopsora pachyrhizi (Rate 50 ppm test suspension) is recorded as 100%. Moreover, the “Test C rating (% disease control)” value in assay [1] (Rate 50 ppm test suspension) came out at 99%.

`CC(C)ON=Cc1cnn(Cc2ccc(-c3noc(C(F)(F)F)n3)cc2)c1` [compound 388]: in the assay on Phakopsora pachyrhizi (Rate 10 ppm test suspension), the “Test A rating (% disease control)” value was determined as 100%. In addition, in assay [1] (Rate 10 ppm test suspension), the “Test C rating (% disease control)” value was found to be 100%.

`COC(=O)c1cnn(CCCc2ccc(-c3noc(C(F)(F)F)n3)cc2)c1` [compound 436]: the “Test A rating (% disease control)” value in the assay on Phakopsora pachyrhizi (Rate 10 ppm test suspension) amounted to 100%. Also, in assay [1] (Rate 10 ppm test suspension), the “Test C rating (% disease control)” value is recorded as 74%.

As for `FC(F)(F)c1nc(-c2ccc(Cn3ncc4cc(Br)cnc43)cc2)no1` [compound 413], in the assay with Phakopsora pachyrhizi (Rate 10 ppm test suspension), the “Test A rating (% disease control)” value is 100%. Also, the “Test C rating (% disease control)” value in assay [1] (Rate 10 ppm test suspension) was found to be 68%.

Consider `C#CCNC(=O)C1=NOC(Cc2ccc(-c3noc(C(F)(F)F)n3)s2)C1` (racemic) [compound 429], for which, in the assay with Phakopsora pachyrhizi (Rate 50 ppm test suspension), the “Test A rating (% disease control)” value was 100%. The “Test C rating (% disease control)” value in assay [1] (Rate 50 ppm test suspension) turned out to be 100%.

Regarding `C=CCON=Cc1cnn(Cc2ccc(-c3noc(C(F)(F)F)n3)cc2)c1` [compound 386], the “Test A rating (% disease control)” value in the assay with Phakopsora pachyrhizi (Rate 10 ppm test suspension) came to 100%. The “Test C rating (% disease control)” value in assay [1] (Rate 10 ppm test suspension) was determined as 100%.

With `CCCCOC(=O)c1cnn(Cc2ccc(-c3noc(C(F)(F)F)n3)cc2)c1` [compound 410], the “Test A rating (% disease control)” value with Phakopsora pachyrhizi (Rate 10 ppm test suspension) was 100%. In addition, the “Test C rating (% disease control)” value in assay [1] (Rate 10 ppm test suspension) came out at 100%.

Turning to `N#Cc1cnn(CCCc2ccc(-c3noc(C(F)(F)F)n3)cc2)c1` [compound 435], the “Test A rating (% disease control)” value with Phakopsora pachyrhizi (Rate 10 ppm test suspension) turned out to be 100%. Further, in assay [1] (Rate 10 ppm test suspension), the “Test C rating (% disease control)” value is on record as 74%.

`Nc1ncnc2c1cnn2Cc1ccc(-c2noc(C(F)(F)F)n2)cc1` [compound 407]: the “Test A rating (% disease control)” value with Phakopsora pachyrhizi (Rate 10 ppm test suspension) worked out at 100%. For the same compound, the “Test C rating (% disease control)” value in assay [1] (Rate 10 ppm test suspension) turned out to be 100%.

On to `COC(=O)c1nccn(Cc2ccc(-c3noc(C(F)(F)F)n3)cc2)c1=O` [compound 423], for which, in the assay with Phakopsora pachyrhizi (Rate 10 ppm test suspension), the “Test A rating (% disease control)” value was determined as 86%. The “Test C rating (% disease control)” value in assay [1] (Rate 10 ppm test suspension) turned out to be 80%.

Consider `COc1ccc(C(O)c2ccc(-c3noc(C(F)(F)F)n3)cc2)cc1` (racemic) [compound 309], for which, in the assay on Phakopsora pachyrhizi (50 ppm test suspension), the “Test A disease control rating” value worked out at 100%. Besides, the “Test C disease control rating” value in assay [1] (50 ppm test suspension) came to 68%.

For `O=C(NCc1ccccc1)c1cnn(Cc2ccc(-c3noc(C(F)(F)F)n3)cc2)c1` [compound 484], in the assay on Phakopsora pachyrhizi (Rate 10 ppm test suspension), the “Test A rating (% disease control)” value turned out to be 100%. The “Test C rating (% disease control)” value in assay [1] (Rate 10 ppm test suspension) is reported as 100%.

Regarding `O=C1N(Cc2ccc(-c3noc(C(F)(F)F)n3)cc2)CCc2cncn21` [compound 462], in the assay on Phakopsora pachyrhizi (Rate 10 ppm test suspension), the “Test A rating (% disease control)” value is 100%. The “Test C rating (% disease control)” value in assay [1] (Rate 10 ppm test suspension) is 89%.

`FC(F)(F)c1nc(-c2ccc(Cn3cc4cc(Br)cnc4n3)cc2)no1` [compound 414]: in the assay on Phakopsora pachyrhizi (Rate 10 ppm test suspension), the “Test A rating (% disease control)” value came out at 100%. The “Test C rating (% disease control)” value in assay [1] (Rate 10 ppm test suspension) is 100%.

Turning to `CCNC(=O)C1=NOC(Cc2ccc(-c3noc(C(F)(F)F)n3)s2)C1` (racemic) [compound 369], the “Test A disease control rating” value with Phakopsora pachyrhizi (50 ppm test suspension) is listed as 100%. The “Test C disease control rating” value in assay [1] (50 ppm test suspension) was 100%.

`CCCOC(=O)c1cnn(Cc2cc(OC)c(-c3noc(C(F)(F)F)n3)s2)c1` [compound 439]: in the assay on Phakopsora pachyrhizi (Rate 10 ppm test suspension), the “Test A rating (% disease control)” value is on record as 0%. Further, in assay [1] (Rate 10 ppm test suspension), the “Test C rating (% disease control)” value worked out at 0%.

In the case of `O=C(NCc1cccnc1)c1cnn(Cc2ccc(-c3noc(C(F)(F)F)n3)cc2)c1` [compound 483], in the assay on Phakopsora pachyrhizi (Rate 10 ppm test suspension), the “Test A rating (% disease control)” value was found to be 100%. For the same compound, in assay [1] (Rate 10 ppm test suspension), the “Test C rating (% disease control)” value was 54%.

Take `Cc1ccc(C(O)c2ccc(-c3noc(C(F)(F)F)n3)cc2)cc1` (stereo not drawn) [compound 501]: the “Test A rating (% disease control)” value in the assay with Phakopsora pachyrhizi (Rate 10 ppm test suspension) came out at 100%. In addition, the “Test C rating (% disease control)” value in assay [1] (Rate 10 ppm test suspension) was 0%.

On to `CNC(=O)C1=NOC(Cc2ccc(-c3noc(C(F)(F)F)n3)s2)C1` (racemic) [compound 368], for which, in the assay with Phakopsora pachyrhizi (50 ppm test suspension), the “Test A disease control rating” value turned out to be 100%. Also, the “Test C disease control rating” value in assay [1] (50 ppm test suspension) stood at 100%.

As to `CCCOC(=O)c1cnn(Cc2ccc3cc(-c4noc(C(F)(F)F)n4)ccc3c2)c1` [compound 416], the “Test A rating (% disease control)” value in the assay on Phakopsora pachyrhizi (Rate 50 ppm test suspension) was determined as 77%. The “Test C rating (% disease control)” value in assay [1] (Rate 50 ppm test suspension) is 0%.

With `O=C(OCc1ccccc1)c1cnn(Cc2ccc(-c3noc(C(F)(F)F)n3)cc2)c1` [compound 412], the “Test A rating (% disease control)” value with Phakopsora pachyrhizi (Rate 10 ppm test suspension) worked out at 100%. Besides, the “Test C rating (% disease control)” value in assay [1] (Rate 10 ppm test suspension) is recorded as 100%.

Turning to `COCCNC(=O)c1cc(C)n(Cc2ccc(-c3noc(C(F)(F)F)n3)cc2)n1` [compound 183], in the assay with Phakopsora pachyrhizi (10 ppm test suspension), the “Test A disease control rating” value came out at 100%. Moreover, in assay [1] (10 ppm test suspension), the “Test C disease control rating” value is listed as 100%.

As for `CC(=O)Nc1cnn(Cc2ccc(-c3noc(C(F)(F)F)n3)cc2)c1` [compound 441], the “Test A rating (% disease control)” value in the assay on Phakopsora pachyrhizi (Rate 10 ppm test suspension) is reported as 87%. In addition, the “Test C rating (% disease control)” value in assay [1] (Rate 10 ppm test suspension) amounted to 9%.

With `O=C(OCCCCl)c1cnn(Cc2ccc(-c3noc(C(F)(F)F)n3)cc2)c1` [compound 448], in the assay with Phakopsora pachyrhizi (Rate 10 ppm test suspension), the “Test A rating (% disease control)” value is listed as 100%. In addition, in assay [1] (Rate 10 ppm test suspension), the “Test C rating (% disease control)” value is on record as 100%.

For `COC(=O)c1cnn(Cc2ccc(-c3noc(C(F)(F)F)n3)s2)c1` [compound 188], the “Test A disease control rating” value in the assay on Phakopsora pachyrhizi (10 ppm test suspension) stood at 100%. In addition, the “Test C disease control rating” value in assay [1] (10 ppm test suspension) is listed as 100%.

In the case of `COc1ccn(Cc2ccc(-c3noc(C(F)(F)F)n3)cc2)c(=O)c1` [compound 421], the “Test A rating (% disease control)” value with Phakopsora pachyrhizi (Rate 10 ppm test suspension) is 100%. Also, in assay [1] (Rate 10 ppm test suspension), the “Test C rating (% disease control)” value amounted to 100%.
